Species: Rattus norvegicus
Assay: Open TG-GATES - Regimen: Single
Format: toxicity, organism-based, Sprague-Dawley
Parameters: regimen Single, gender Male, age 6 weeks
Conditions: in vivo, po, 0 mg/kg, route gavage, dose level Control; for APTT / Bas / Eos / Fbg / Hb / Ht / Lym / MCH / MCHC / MCV / Mono / Neu / PT / Plat / RBC / Ret / WBC: tissue Blood; for KIDNEY_L / KIDNEY_R / KIDNEY_TOTAL: tissue Kidney; for LIVER: tissue Liver; for ALP / ALT / AST / BUN / CRE / Ca / Cl / DBIL / GLC / IP / K / LDH / Na / PL / RALB / TBIL / TC / TG / TP / gamma-GTP: tissue Plasma

## COc1cc([C@@H]2c3cc4c(cc3[C@@H](O[C@@H]3O[C@@H]5CO[C@@H](C)O[C@H]5[C@H](O)[C@H]3O)[C@H]3COC(=O)[C@H]23)OCO4)cc(OC)c1O [ETOPOSIDE]
3 h
  TERMINAL_BW: 199.4 g
  APTT: 17.1 s
  Bas: 0%
  Eos: 1.2%
  Fbg: 192.2 mg/dL
  Hb: 13.3 g/dL
  Ht: 39.3%
  Lym: 74.8%
  MCH: 22.4 pg
  MCHC: 33.8%
  MCV: 66.2 fL
  Mono: 8%
  Neu: 15.8%
  PT: 12.2 s
  Plat: 113.5 x10_4/uL
  RBC: 594.2 x10_4/ul
  Ret: 10.6%
  WBC: 85 x10_2/uL
  KIDNEY_L: 1 g
  KIDNEY_R: 1 g
  KIDNEY_TOTAL: 2 g
  LIVER: 9.5 g
  ALP: 857.8 IU/L
  ALT: 32.8 IU/L
  AST: 67.6 IU/L
  BUN: 11.8 mg/dL
  CRE: 0.5 mg/dL
  Ca: 10.4 mg/dL
  Cl: 105 meq/L
  DBIL: 0.034 mg/dL
  GLC: 197.6 mg/dL
  IP: 9.1 mg/dL
  K: 4.7 meq/L
  LDH: 97.4 IU/L
  Na: 141.6 meq/L
  PL: 126.6 mg/dL
  RALB: 3.4 g/dL
  TBIL: 0.3 mg/dL
  TC: 71.8 mg/dL
  TG: 43 mg/dL
  TP: 5.2 g/dL
  gamma-GTP: 1 IU/L
6 h
  TERMINAL_BW: 198 g
  APTT: 16.6 s
  Bas: 0%
  Eos: 0.8%
  Fbg: 201.6 mg/dL
  Hb: 13.4 g/dL
  Ht: 39.7%
  Lym: 82.4%
  MCH: 22 pg
  MCHC: 33.7%
  MCV: 65.3 fL
  Mono: 5.6%
  Neu: 11.2%
  PT: 11.9 s
  Plat: 117.8 x10_4/uL
  RBC: 607.8 x10_4/ul
  Ret: 9.8%
  WBC: 93.7 x10_2/uL
  KIDNEY_L: 0.9 g
  KIDNEY_R: 0.9 g
  KIDNEY_TOTAL: 1.8 g
  LIVER: 9.1 g
  ALP: 946.6 IU/L
  ALT: 36 IU/L
  AST: 65.2 IU/L
  BUN: 11.6 mg/dL
  CRE: 0.6 mg/dL
  Ca: 10.6 mg/dL
  Cl: 105 meq/L
  DBIL: 0.016 mg/dL
  IP: 10.5 mg/dL
  K: 4.8 meq/L
  LDH: 65.8 IU/L
  Na: 142.4 meq/L
  PL: 132.8 mg/dL
  RALB: 3.3 g/dL
  TBIL: 0.4 mg/dL
  TC: 72.8 mg/dL
  TG: 68.4 mg/dL
  TP: 5.2 g/dL
  gamma-GTP: 1 IU/L
9 h
  TERMINAL_BW: 194.1 g
  APTT: 16.9 s
  Bas: 0%
  Eos: 1.2%
  Fbg: 206 mg/dL
  Hb: 13.4 g/dL
  Ht: 39.7%
  Lym: 74.4%
  MCH: 22.2 pg
  MCHC: 33.9%
  MCV: 65.6 fL
  Mono: 9.8%
  Neu: 15%
  PT: 10.9 s
  Plat: 117.1 x10_4/uL
  RBC: 604.6 x10_4/ul
  Ret: 9.1%
  WBC: 71.2 x10_2/uL
  KIDNEY_L: 0.9 g
  KIDNEY_R: 0.9 g
  KIDNEY_TOTAL: 1.9 g
  LIVER: 8.4 g
  ALP: 752.2 IU/L
  ALT: 29.8 IU/L
  AST: 58.2 IU/L
  BUN: 10.4 mg/dL
  CRE: 0.5 mg/dL
  Ca: 10.6 mg/dL
  Cl: 107.6 meq/L
  DBIL: 0.022 mg/dL
  GLC: 190.6 mg/dL
  IP: 10.1 mg/dL
  K: 4.6 meq/L
  LDH: 59.2 IU/L
  Na: 144.6 meq/L
  PL: 127.4 mg/dL
  RALB: 3.4 g/dL
  TBIL: 0.4 mg/dL
  TC: 71.6 mg/dL
  TG: 28.4 mg/dL
  TP: 5.4 g/dL
  gamma-GTP: 0.8 IU/L
24 h
  TERMINAL_BW: 215.6 g
  APTT: 16.3 s
  Bas: 0%
  Eos: 1.2%
  Fbg: 207.6 mg/dL
  Hb: 13.1 g/dL
  Ht: 38.4%
  Lym: 78.2%
  MCH: 22.7 pg
  MCHC: 34.1%
  MCV: 66.6 fL
  Mono: 6%
  Neu: 14.6%
  PT: 11.6 s
  Plat: 107.4 x10_4/uL
  RBC: 578 x10_4/ul
  Ret: 8.8%
  WBC: 94.9 x10_2/uL
  KIDNEY_L: 1 g
  KIDNEY_R: 1 g
  KIDNEY_TOTAL: 2 g
  LIVER: 10.9 g
  ALP: 866 IU/L
  ALT: 38.2 IU/L
  AST: 68.2 IU/L
  CRE: 0.6 mg/dL
  Ca: 10.9 mg/dL
  Cl: 104.6 meq/L
  DBIL: 0.03 mg/dL
  GLC: 196.6 mg/dL
  IP: 7.7 mg/dL
  K: 4.8 meq/L
  LDH: 85.2 IU/L
  Na: 141.4 meq/L
  PL: 161.6 mg/dL
  RALB: 3.6 g/dL
  TBIL: 0.3 mg/dL
  TC: 92.2 mg/dL
  TG: 84.4 mg/dL
  TP: 5.6 g/dL
  gamma-GTP: 1.6 IU/L

Source: ChEMBL document CHEMBL3885861, “Open TG-GATES”
